Bounds are passed on as bounds.

The subject of the first test is MV-4-11 cells. The experiment in a line: Cell Viability Assay in MV-4-11 Cells. The format is cell-based. To be noted: Homo sapiens, MV4-11, 72 h. In a few lines: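 MV-4-11 cells at 7,000/well in IMDM with 10% FBS, exposed to compound for 72 h. Viability by CellTiter-Glo luminescence, normalized to DMSO as 100%, fitted with a four-parameter curve.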
`C=C(C)c1csc2ccnc(N(C(=O)c3ccc(-c4cn(C)nn4)cc3F)[C@@H]3CCCNC3)c12` [Example 842, (R)-2-fluoro-4-(1-methyl-1H-1,2,3-triazol-4-yl)-N-(piperidin-3-yl)-N-(3-(prop-1-en-2-yl)thieno[3,2-c]pyridin-4-yl)benzamide] had an IC50 of 0.27 µM.

The same test, now with this note: Homo sapiens, MV4-11, 72 h, MV-4-11 cells, 72 h, Cell-Titer Glo; read-out: IC50.
With `Cc1cccc2ccnc(N(C(=O)c3ccc(Nc4nccc(N5CCOC[C@H]5CO)n4)cc3F)[C@@H]3CCCNC3)c12` [Example 942, 2-fluoro-4-((4-((R)-3-(hydroxymethyl)morpholino)pyrimidin-2-yl)amino)-N-(8-methylisoquinolin-1-yl)-N—((R)-piperidin-3-yl)benzamide], the IC50 stood at 0.088 µM.

Turning to `CCn1cc(-c2ccc(C(=O)N(c3nccc4cc(F)cc(C)c34)[C@@H]3CCCNC3)c(F)c2)nn1` [Example 712, 4-(1-ethyltriazol-4-yl)-2-fluoro-N-(6-fluoro-8-methyl-1-isoquinolyl)-N-[(3R)-3-piperidyl]benzamide], the IC50 worked out at 0.053 µM. Take `Cc1csc2ccnc(N(C(=O)c3ccc(-c4nnn5c4CN(C)CC5)cc3F)[C@@H]3CCCNC3)c12` [Example 923, 2-fluoro-4-(5-methyl-6,7-dihydro-4H-triazolo[1,5-a]pyrazin-3-yl)-N-(3-methylthieno[3,2-c]pyridin-4-yl)-N-[(3R)-3-piperidyl]benzamide]: the IC50 was above 1 µM.

The test system of another test is HCT-116 Firefly-luciferase reporter cells. The experiment in a line: Cellular c-MYC Reporter Assay. In kind it is cell-based. To be noted: Homo sapiens; untitled table following Table 8a; HCT-116 Firefly-luciferase reporter cells, 24 h; read-out: pIC50 (converted). As to the method:
HCT-116 Firefly-luciferase reporter cells (BPS Bioscience) were seeded in 96-well tissue-culture treated sterile plates (Greiner Bio-One) at 5e4 cells/mL in 100 μL complete growth media (McCoy's 5A+10% FBS, +1% Pen-Strep, +1% G418). Cells were incubated at 37° C. with 5% CO2 for 4-6 h then treated with 3× compound solution in 50 μL complete growth media for a final volume of 150 μL per well with 0.2% DMSO. After 24 h incubation at 37° C. with 5% CO2, plates were allowed to equilibrate to RT for 20 min then developed by addition of 100 μL ONE-Glo Luciferase detection reagent (Promega), incubated at RT for 10 min. Luminescence was recorded using a SpectraMax i3x plate reader (Molecular Devices) and analyzed using Prism GraphPad 9 software.
As for `O=C(c1ccc(-n2nnc3cccnc32)cc1F)N(c1ncccc1-c1cc2cnccc2s1)[C@@H]1CCCNC1` [Example 157, (R)-4-(3H-[1,2,3]triazolo[4,5-b]pyridin-3-yl)-2-fluoro-N-(piperidin-3-yl)-N-(3-(thieno[3,2-c]pyridin-2-yl)pyridin-2-yl)benzamide], the IC50 is 0.501 µM. On to `Cc1ccnc(N(C(=O)c2ccc(-n3nnc4cccnc43)cc2F)[C@@H]2CCCNC2)c1Cl` [Example 284, (R)-4-(3H-[1,2,3]triazolo[4,5-b]pyridin-3-yl)-N-(3-chloro-4-methylpyridin-2-yl)-2-fluoro-N-(piperidin-3-yl)benzamide], for which the IC50 is 1.2 µM. The same measure, in the same setting: to `COc1ccc2c(N(C(=O)c3ccc(-n4nnc5cccnc54)cc3F)[C@@H]3CCCNC3)nccc2c1` [Example 145, (R)-4-(3H-[1,2,3]triazolo[4,5-b]pyridin-3-yl)-2-fluoro-N-(6-methoxyisoquinolin-1-yl)-N-(piperidin-3-yl)benzamide] belongs 0.525 µM; to `COC(=O)c1ccc2c(N(C(=O)c3ccc(-n4nnc5cccnc54)cc3F)[C@@H]3CCCNC3)nccc2c1` [Example 117, methyl (R)-1-(4-(3H-[1,2,3]triazolo[4,5-b]pyridin-3-yl)-2-fluoro-N-(piperidin-3-yl)benzamido)isoquinoline-6-carboxylate], 0.49 µM; to `Cc1cccc2ccnc(N(C(=O)c3ccc(N)cc3F)[C@@H]3CCCNC3)c12` [Example 124, (R)-4-amino-2-fluoro-N-(8-methylisoquinolin-1-yl)-N-(piperidin-3-yl) benzamide], 3.89 µM. Turning to `Cc1cccc2ccnc(N(C(=O)c3ccc(-c4onc5ccccc45)cc3F)[C@@H]3CCCNC3)c12` [Example 196, (R)-4-(benzo[c]isoxazol-3-yl)-2-fluoro-N-(8-methylisoquinolin-1-yl)-N-(piperidin-3-yl)benzamide], the IC50 was above 20 µM. Still for that read-out and setting: to `Cc1cccc2ccnc(N(C(=O)N3CCN(c4nsc5ccccc45)CC3)[C@@H]3CCCNC3)c12` [Example 264, (R)-4-(benzo[d]isothiazol-3-yl)-N-(8-methylisoquinolin-1-yl)-N-(piperidin-3-yl)piperazine-1-carboxamide] belongs 3.98 µM; to `Cc1nnc(-c2ccc(C(=O)N(c3nccc4cccc(C)c34)[C@@H]3CCCNC3)c(F)c2)s1` [Example 127, (R)-2-fluoro-4-(5-methyl-1,3,4-thiadiazol-2-yl)-N-(8-methylisoquinolin-1-yl)-N-(piperidin-3-yl) benzamide], 0.339 µM. With `Cc1cccc2ccnc(N(C(=O)N3CCC(Nc4ncccn4)CC3)[C@@H]3CCCNC3)c12` [Example 208, (R)—N-(8-methylisoquinolin-1-yl)-N-(piperidin-3-yl)-4-(pyrimidin-2-ylamino)piperidine-1-carboxamide], the IC50 is 3.55 µM. Still for that read-out and setting: to `Cc1cccc2ccnc(N(C(=O)c3ccc(-c4cn(C)nn4)cc3F)[C@@H]3CCCNC3)c12` [Example 193, (R)-2-fluoro-4-(1-methyl-1H-1,2,3-triazol-4-yl)-N-(8-methylisoquinolin-1-yl)-N-(piperidin-3-yl)benzamide] belongs 0.0794 µM. For the compound `O=C(c1ccc(-n2nnc3cccnc32)cc1F)N(c1nccc2ccc(-c3cncnc3)cc12)[C@@H]1CCCNC1` [Example 150, (R)-4-(3H-[1,2,3]triazolo[4,5-b]pyridin-3-yl)-2-fluoro-N-(piperidin-3-yl)-N-(7-(pyrimidin-5-yl)isoquinolin-1-yl)benzamide], the IC50 was 2.29 µM.

Regarding `Cc1cccc2ccnc(N(C(=O)c3ccc(-n4nnc5ccc(Cl)nc54)cc3F)[C@@H]3CCCNC3)c12` [Example 192, (R)-4-(5-chloro-3H-[1,2,3]triazolo[4,5-b]pyridin-3-yl)-2-fluoro-N-(8-methylisoquinolin-1-yl)-N-(piperidin-3-yl)benzamide], the IC50 was 0.17 µM. On the same count and under the same terms, the same measure for `C=Cc1cccc2ccnc(N(C(=O)c3ccc(-n4nnc5cccnc54)cc3F)[C@@H]3CCCNC3)c12` [Example 102, (R)-4-(3H-[1,2,3]triazolo[4,5-b]pyridin-3-yl)-2-fluoro-N-(piperidin-3-yl)-N-(8-vinylisoquinolin-1-yl)benzamide]: 0.0468 µM; for `Cc1cccc2ccnc(N(C(=O)c3ccc(CO)cc3F)[C@@H]3CCCNC3)c12` [Example 168, (R)-2-fluoro-4-(hydroxymethyl)-N-(8-methylisoquinolin-1-yl)-N-(piperidin-3-yl)benzamide]: 5.25 µM; for `Cc1cccc2ccnc(N(C(=O)c3ccc(Nc4cccc(=O)[nH]4)cc3F)[C@@H]3CCCNC3)c12` [Example 292, (R)-2-fluoro-N-(8-methylisoquinolin-1-yl)-4-((6-oxo-1,6-dihydropyridin-2-yl)amino)-N-(piperidin-3-yl)benzamide]: above 20 µM.

With `Cc1cccc2ccnc(N(C(=O)c3ccc(-c4nnn[nH]4)cc3)[C@H]3CCCNC3)c12` [Example 128, (S)—N-(8-methylisoquinolin-1-yl)-N-(piperidin-3-yl)-4-(1H-tetrazol-5-yl)benzamide], the IC50 is above 10 µM. The same measure, in the same setting: to `Cc1cc(C2CCN(C(=O)N(c3nccc4cccc(C)c34)[C@@H]3CCCNC3)CC2)ccn1` [Example 199, (R)—N-(8-methylisoquinolin-1-yl)-4-(2-methylpyridin-4-yl)-N-(piperidin-3-yl)piperidine-1-carboxamide] belongs 0.263 µM. For the compound `COc1ccc2nnn(-c3ccc(C(=O)N(c4nccc5cccc(C)c45)[C@@H]4CCCNC4)c(F)c3)c2n1` [Example 187, (R)-2-fluoro-4-(5-methoxy-3H-[1,2,3]triazolo[4,5-b]pyridin-3-yl)-N-(8-methylisoquinolin-1-yl)-N-(piperidin-3-yl)benzamide], the IC50 is 0.0501 µM. On the same count and under the same terms, to `Cc1cccc2ccnc(N(C(=O)N3CC=C(c4ccccc4)CC3)[C@@H]3CCCNC3)c12` [Example 287, (R)—N-(8-methylisoquinolin-1-yl)-4-phenyl-N-(piperidin-3-yl)-3,6-dihydropyridine-1(2H)-carboxamide] belongs 5.89 µM. On the same count and under the same terms, the same measure for `O=C(c1ccc(-n2nnc3cccnc32)cc1F)N(c1nccc2sc(Br)cc12)[C@@H]1CCCNC1` [Example 162, (R)-4-(3H-[1,2,3]triazolo[4,5-b]pyridin-3-yl)-N-(2-bromothieno[3,2-c]pyridin-4-yl)-2-fluoro-N-(piperidin-3-yl)benzamide]: 0.776 µM. For `O=C(c1ccc(-n2nnc3cccnc32)cc1F)N(c1ncccc1-c1cnn(CCO)c1)[C@@H]1CCCNC1` [Example 116, (R)-4-(3H-[1,2,3]triazolo[4,5-b]pyridin-3-yl)-2-fluoro-N-(3-(1-(2-hydroxyethyl)-1H-pyrazol-4-yl)pyridin-2-yl)-N-(piperidin-3-yl)benzamide], the IC50 is 2.57 µM. Same read-out and setting: to `CNC(=O)c1ccc2nnn(-c3ccc(C(=O)N(c4nccc5cccc(C)c45)[C@@H]4CCCNC4)c(F)c3)c2n1` [Example 139, (R)-3-(3-fluoro-4-((8-methylisoquinolin-1-yl)(piperidin-3-yl)carbamoyl)phenyl)-N-methyl-3H-[1,2,3]triazolo[4,5-b]pyridine-5-carboxamide] belongs 0.17 µM; to `CN1CCC(C2CCN(C(=O)N(c3cc4ccccc4cn3)[C@@H]3CCCNC3)CC2)C1` (stereo partly drawn) [Example 256, N-(isoquinolin-3-yl)-4-(1-methylpyrrolidin-3-yl)-N—((R)-piperidin-3-yl)piperidine-1-carboxamide], 9.12 µM. Still for that read-out and setting: the same measure for `Cc1cc(C)c2c(N(C(=O)c3ccc(-n4nnc5cccnc54)cc3F)[C@@H]3CCCNC3)nccc2c1` [Example 254, (R)-4-(3H-[1,2,3]triazolo[4,5-b]pyridin-3-yl)-N-(6,8-dimethylisoquinolin-1-yl)-2-fluoro-N-(piperidin-3-yl)benzamide]: 0.0617 µM.
